Results: patent publication US20100266696A1, “Organic Compounds” (priority 2007, published 2010)

Legend:
[1] = final product after spray drying; ultrasonication 60 W 480 s
Experimental: The spray dryer is operated at an outlet temperature of around 75-78° C., i.e., above the boiling point of neat acetone, in order to avoid solvent condensation in the spray tower. The inlet temperature is set to 100° C., and the experiment initiated by spraying pure solvent. The spray rate is set to a flow of 5 mL/min using a Büchi lab scale spray dryer, with the aspirator operated at 100%. The nitrogen flow rate is kept constant at 600-700 l/h. At these operating conditions, the homogenised suspension is sprayed, and a dry powder is collected in a cyclone followed by a cloth filter.
Once again ultrasonication at 60 W is applied for 480 seconds to break any loose aggregates in the product prior to starting the particle size distribution measurement.
The final product after spray drying is re-characterized after 25 days of storage at ambient conditions as well as at 4° C.

[2] = Scanning electron microscopy of glycopyrrolate materials (Example 1); format: physicochemical
Text: (§1) The crystallites appear to break into fairly regular, rectangularly shaped fragments of smaller size in the early stages of homogenization, which are subsequently comminuted and smoothed further. Particle size decreases further at an increasing number of homogenization cycles, after 24 passes the average particle size is around 1 μm already, and the particle edges are noticeably more rounded than initially or after only 12 passes. No significant changes are observed in particles isolated after 24 and 48 passes through the homogeniser.
(§2) Particles still appear as rectangularly shaped fragments with smoothed edges and an average size around or slightly above 1 μm. The specific surface area of the dried suspension (analysed by adsorption analysis, BET surface measurement) is determined to be 4.0 m^2/g.

[3] = Aggregation/agglomeration tendency: jet-milled vs high pressure homogenised and dried (Example 4); format: physicochemical
Text: The mill is equipped with 3 nozzles of 1.9 mm diameter. […] As a consequence, the material has to be co-milled with a force control agent such as magnesium stearate in order to obtain a freely flowable non-agglomerating micronised drug substance.

[4] = Laser light diffraction particle size analysis of high pressure homogenised glycopyrrolate suspension (Example 1); format: physicochemical; conditions: suspension in acetone after homogenisation at 950 bar, 48 passes; ultrasonication 60 W 480 s
Experimental: The suspension is then homogenised at a pressure drop of 950 bar, a reflux temperature of about 9-12.5° C., and a mixing/reflux vessel jacket temperature of 2° C. The piston pump stroke frequency is about 60, and the process is run for a total of 60 minutes, which is equivalent to a total of 48 passes or homogenisation cycles. Samples are also taken as in process control after 15 (12 passes) and 30 (24 passes) minutes, and analyzed along with the final product.
as §1

[5] = BET specific surface area (adsorption analysis); format: physicochemical
Experimental: as §2
The specific surface area of the final product by BET analysis is determined to be 4.0 m2/g.

[6] = X-ray powder diffraction and DSC crystallinity; format: physicochemical; conditions: final product after spray drying

Structure (SMILES): C[N+]1(C)CCC(OC(=O)C(O)(c2ccccc2)C2CCCC2)C1.[Br-] (stereo not shown) [glycopyrrolate, 3-[(cyclopentyl-hydroxyphenylacetyl)oxy]-1,1-dimethyl-pyrrolidinium bromide]
- mean particle size, ×50 [1]: 1.7 μm
- ×90 value [1]: 3.6 μm
- average particle size ([2]; after 24 passes of homogenisation): around 1 μm
- average size by scanning electron microscopy ([2]; after homogenisation step): below 5 μm
- average size by SEM ([2]; spray dried glycopyrrolate): ~1 μm
- tendency to aggregate or agglomerate ([3]; high pressure homogenised and subsequently dried material (Examples 1, 2 and 3)): no tendency to aggregate or agglomerate
- tendency to aggregate and agglomerate ([3]; micronised in fluid bed opposed jet mill): high tendency to aggregate and agglomerate
- ×10 mean particle size [4]: 0.6 μm
- ×50 mean particle size [4]: 1.3 μm
- ×90 mean particle size [4]: 3.1 μm
- specific surface area (BET) ([5]; dried suspension): 4.0 m^2/g
- specific surface area by BET analysis ([5]; final product): 4.0 m2/g
- crystallinity (XPRD and DSC) compared to coarse drug substance [6]: no change in crystallinity
